Experimental data: article PMC11271967, “An inhibitory mechanism of AasS, an exogenous fatty acid scavenger: Implications for re-sensitization of FAS II antimicrobials” (PLOS Pathogens, 2024)
“Also recorded” adds a separate entry of the source. Read-outs that look alike come from different tables or passages of the source.

Assays:
AasS [1] = target: T1, AasS (Vibrio harveyi, UniProt Q00IB3); set-up: method as in PMID 39794554; conditions: cited from earlier work
AasS [2] = test: In vitro enzymatic activity of AasS (acyl-ACP formation, conformationally-sensitive urea PAGE, ImageJ semi-quantitation); format: biochemical, Vibrio harveyi; conditions: for activity as substrate of AasS in vitro (ligation with holo-ACP): urea gel; for C10-ACP conversion from C10 substrate, Average: AasS 3 nM, fig. 2E
[3] = system: AasS-expressing E. coli ΔbioC strain; test: AasS-based bypass of biotin synthesis, bacterial viability on M9 agar; format: cell-based, Escherichia coli; conditions: biotin-deficient M9 medium
Excerpt: Fig 4 Integrated evidence for the inhibition of AasS action with E-C7 fatty acid by C10-AMS compound. A. Schematic diagram of AasS-catalyzed ligation of E-C7 with holo-ACP recipient to produce E-C7-ACP. […] A representative photograph of three independent trials was given. C. Relatively-quantitative analysis (for the inhibitory efficacy of C10-AMS on AasS-catalyzed E-C7-ACP production. As for AasS reaction (panel B), unlike the three components that are at constant levels, namely (i) AasS (31.25 nM), (ii) E-C7 (600 μM), and (iii) ACP (3 μg), C10-AMS inhibitor was supplemented at varied ratio in relative to the AasS enzyme (ranging from 0:1, 25:1, 50:1, 100:1, 200:1, 300:1, 400:1, to 500:1). The ImageJ software was applied to measure the relative percentage (%) of E-C7 fatty acylation in each AasS reaction. The resultant graphs were plotted from three independent experiments, in which the output was expressed as means ± SD (standard deviations). D. Schematic diagram for C10-AMS inhibition of AasS-based bypass of biotin requirement by the E. coli ΔbioC biotin auxotroph on the non-permissive condition. […] Log-phase cultures in a series of 10-fold dilution (shown in panel on right hand), were spotted on the x-gal-containing M9 agar plates supplemented with C10-AMS inhibitor at varied levels (0, 50, 100, to 500 μM). The addition of x-gal substrate enabled the occurrence of blue colonies for better photographing, and viable colonies were highlighted with yellow arrows.
Given that AasS ligates E-C7 fatty acid with holo-ACP, giving E-C7-ACP, an alternative precursor for bacterial biotin synthesis, plasmid-borne aasS expression in ΔbioC biotin auxotroph strain is assumed to overcome the requirement of the primary BioC step [58, 83]. Apart from its WT, three single mutants of AasS (D411A, R426A, and K432A) were examined in vivo, of which the compromised activity is presumably proportional to the varied viability of the ΔbioC reporter strains on the non-permissive M9 growth condition. To test its inhibitory effect, the C10-AMS inhibitor in a series of dilution was supplemented. […]

AasS [4] = target: T1, AasS; test: Isothermal titration calorimetry (ITC), wild-type AasS; format: binding; conditions: for binding to AasS in ITC: negative controls
Procedure: The assays of Isothermal titration calorimetry (ITC) were conducted to address the stoichiometry of AasS binding to its C10-AMS inhibitor and C10-AMP intermediate. Since both malic acid and pimelic acid are not substrates for AasS, the two dicarboxylic acids were assumed as negative controls in our ITC analysis. Using a micro-calorimeter (MicroCal PEAQ-ITC) as recently described for E-C7 with little change, totally 18 titrations (2 μl each at an internal of 2.5 min) proceeded in the cell at room temperature. Prior to the titration, AasS protein (~40 μM) was saturated with its ATP cofactor (120 μM) in the cell, and C10-AMS inhibitor (or C10) was kept at 600 μM in the syringe. The titration buffer was composed of 150 mM NaCl, 25 mM Tris-HCl (pH8.0), 2 mM DTT, and 3 mM MgCl2. One set of site model by the MicroCal PEAQ-ITC software enabled plotting the titration curves. Next, the stoichiometry (N) and dissociation constant (Kd) were calculated. It was given as an average ± standard deviation (SD) from three independent trials.

[5] = system: MenE, an o-succinylbenzoyl-CoA synthetase; conditions: cited from earlier work
AasS (D411A) = test: Isothermal titration calorimetry (ITC), AasS (D411A) mutant; format: binding, Vibrio harveyi
Procedure: Fig 7 Parallels in binding of AasS to the C10-AMP adenylate intermediate and the C10-AMS inhibitor. Structural visualization for AasS binding an intermediate C10-AMP adenylate (A) and its inhibitor C10-AMS (B). […] C. […] Both AasS enzymatic reaction and conformationally-sensitive gel separation were conducted as described in Fig 2D and 2F. D. In vivo evidence that the three single mutants of AasS (D411A, R426A, and K432A) lose the ability to bypass the physiological requirement of biotin for the bioC isogenic mutant of E. coli on the non-permissive condition. The bacterial viability on M9 defined agar medium was determined as performed in Fig 4E. […] The ITC assays were carried out as we conducted in Fig 3B.
The assays of Isothermal titration calorimetry (ITC) were conducted to address the stoichiometry of AasS binding to its C10-AMS inhibitor and C10-AMP intermediate. Since both malic acid and pimelic acid are not substrates for AasS, the two dicarboxylic acids were assumed as negative controls in our ITC analysis. Using a micro-calorimeter (MicroCal PEAQ-ITC) as recently described for E-C7 with little change, totally 18 titrations (2 μl each at an internal of 2.5 min) proceeded in the cell at room temperature. […] Next, the stoichiometry (N) and dissociation constant (Kd) were calculated. […]

AasS(D411A) = test: Microscale thermophoresis (MST), AasS(D411A) mutant; format: binding, Vibrio harveyi; conditions: D411A 180 nM; C10/ATP mixture 0.15 nM to 5.0 μM
Procedure: (§1) To validate poor binding of AasS(D411A) to C10 fatty acyl adenylate observed in our ITC assays, the relatively-more sensitive approach of microscale thermophoresis (MST) was additionally applied here as Jerabek-Willemsen et al. described with minor alteration. Using the Protein Labeling Kit (Protein Labeling Kit RED-NHS 2nd Generation, Nano Temper Technology), both the wild-type AasS and its D411A mutant were fluorescently labelled in the MST buffer (150 mM NaCl, 25 mM Tris-HCl, 3 mM MgCl2, 0.05% Tween-20, pH 8.0). The ligand C10-AMP used in MST assays was prepared by an equal mixture of C10 and ATP. In general, an NT.115 Monolith instrument (Nano Temper Technology, Germany) was integrated, of which the routine parameters included a RED/LED (20%) excitation power along with 60% laser power for excitation. Then, the protein samples were siphoned into MST Premium Coated capillaries for the determination of binding affinity at room temperature. The final concentrations of different AasS samples were 40 nM for WT, and 180 nM for D411A, respectively. The mixture of C10/ATP was diluted in a gradient (from 0.15 nM to 5.0 μM). Three independent MST experiments were conducted here. The dissociation constants (Kd) were calculated using the software MO. Affinity Analysis v2.3. Of note, this was largely dependent on the KD model with a 1:1 stoichiometry per binding partner.

AasS [6] = target: T1, AasS; test: Microscale thermophoresis (MST), wild-type AasS; format: binding; conditions: AasS 40 nM; C10/ATP mixture 0.15 nM to 5.0 μM
Procedure: as §1

T1 sequence (Q00IB3 entry or part of it): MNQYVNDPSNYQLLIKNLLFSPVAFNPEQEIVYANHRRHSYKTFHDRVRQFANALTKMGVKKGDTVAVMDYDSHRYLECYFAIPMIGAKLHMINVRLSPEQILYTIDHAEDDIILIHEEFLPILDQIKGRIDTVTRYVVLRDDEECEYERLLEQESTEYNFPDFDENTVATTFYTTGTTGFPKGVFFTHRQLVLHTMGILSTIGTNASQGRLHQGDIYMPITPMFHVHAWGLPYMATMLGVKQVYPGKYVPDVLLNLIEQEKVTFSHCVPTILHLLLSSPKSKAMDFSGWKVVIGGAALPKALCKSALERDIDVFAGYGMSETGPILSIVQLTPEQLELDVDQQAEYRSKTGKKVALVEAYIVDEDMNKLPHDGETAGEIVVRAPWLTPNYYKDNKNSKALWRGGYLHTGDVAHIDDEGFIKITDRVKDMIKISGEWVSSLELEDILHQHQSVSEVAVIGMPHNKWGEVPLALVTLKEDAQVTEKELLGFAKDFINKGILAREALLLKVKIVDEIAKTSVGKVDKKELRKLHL

CCOC(=O)CCCCCC(=O)O [E-C7, mono-ethyl pimelic acid]
binding affinity to AasS (AasS [1]): mild affinity

O=C(O)CC(O)C(=O)O (centres unmarked) [malic acid]
activity as substrate of AasS in vitro (ligation with holo-ACP) (AasS [2]): inactive
support of AasS-based biotin bypass as sole carbon source [3]: loss of function in supporting bacterial viability; also recorded: cannot bypass biotin requirement
binding to AasS in ITC (AasS [4]): none of the two dicarboxylic acids; also recorded: without an ability of binding

Nc1ncnc2c1ncn2[C@@H]1O[C@H](COS(=O)(=O)NC(=O)CCC(=O)c2ccccc2C(=O)O)[C@@H](O)[C@H]1O [OSB-AMS]
mode of inhibition of MenE [5]: mixed-type inhibitor

O=C(O)CCCCCC(=O)O [pimelic acid]
activity as substrate of AasS in vitro (ligation with holo-ACP) (AasS [2]): inactive
support of AasS-based biotin bypass as sole carbon source [3]: loss of function in supporting bacterial viability; also recorded: Failure of AasS-based biotin bypass
binding to AasS in ITC (AasS [4]): no binding
binding to AasS in ITC (AasS [4]; listed as pimelate): none of the two dicarboxylic acids

CCCCCCCCCC(=O)O [C10, decanoic acid]
binding to AasS (D411A) in ITC (words) (AasS (D411A)): fails to effectively bind
binding to AasS (D411A) in ITC (words) (AasS (D411A); listed as decanoic acid): does not
C10-ACP conversion from C10 substrate, Average (AasS [2]; C10 6 μM): 46.1519
C10-ACP conversion from C10 substrate, Average (AasS [2]; C10 12 μM): 68.3859
C10-ACP conversion from C10 substrate, Average (AasS [2]; C10 24 μM): 90.5892
C10-ACP conversion from C10 substrate, Average (AasS [2]; C10 60 μM): 89.8102
C10-ACP conversion from C10 substrate, Average (AasS [2]; C10 120 μM): 91.2632
C10-ACP conversion from C10 substrate, Average (AasS [2]; C10 180 μM): 91.9374
C10-ACP conversion from C10 substrate, Average (AasS [2]; C10 240 μM): 91.9685
Kd (AasS [4]): 54.4 ± 5.1 nM

CCCCCCCCCC(=O)OP(=O)(O)OCC1OC(n2cnc3c(N)ncnc32)C(O)C1O (centres unmarked) [C10-AMP, decanoyl-adenylate]
binding by AasS(D411A) in MST (AasS(D411A)): lose its ability of binding
stoichiometry (n) (AasS [4]; AasS ~40 μM saturated with ATP 120 μM): 0.77 ± 0.04
Kd (AasS [4]; AasS ~40 μM saturated with ATP 120 μM, ligand 600 μM in syringe, room temperature, read-out: dissociation constant (Kd)): 64.4 ± 5.2 nM
binding by wild-type AasS in MST (AasS [6]): efficient binding
